Data on 2 molecules can be found in paper PMC5519068 (PLoS ONE, 2017).

One test concerns THP-1 cells. Put plainly: Growth inhibition, CellTiter-Blue viability, 72 h. It counts as cell-based. The conditions noted are these: Homo sapiens, THP-1 (wild-type Flt3), read-out: Growth Suppression in AML Cell Lines (IC50, nM) THP-1. As to the method:
(§1) Cells were seeded at a density of 100,000 cells per 1.0 ml in 48-well culture plates. Compounds were added to various concentrations while holding the DMSO concentration constant at 0.1%. Cell viability was assessed 72 hours later using the CellTiter-Blue Cell Viability assay (Promega) according to the manufacturer’s protocol and a SpectraMax Multi-Mode Microplate Reader (Molecular Devices). IC50 values were determined by non-linear regression analysis of concentration-response curves using the GraphPad PRISM software package (version 6.0). Apoptosis was determined using the same cell culture conditions and the Apo-ONE Homogeneous Caspase-3/7 Assay (Promega) and the manufacturer’s protocol.
(§2) Fig 2 Fes tyrosine kinase inhibitors induce growth arrest in Flt3-ITD^+ AML cell lines. A) The Flt3-ITD^+ cell lines MV4-11, MOLM-13, and MOLM-14, along with THP-1 (wild-type FLT3) were incubated with each of the kinase inhibitors shown over a range of concentrations, and cell viability was measured 72 h later using the CellTiter-Blue Assay (see Materials and methods). Raw fluorescence data were corrected for background and then normalized to cultures grown in the presence of the DMSO carrier solvent. Each assay condition was performed in triplicate, and results are presented as the mean of the normalized values ± the SD. The resulting dose-response curves were fitted by non-linear regression analysis, and the resulting IC50 values are shown in Table 1.

A further test relates to MV4-11 cells. The experiment in a line: Growth inhibition, CellTiter-Blue viability, 72 h. It is filed as cell-based. The conditions noted are these: Homo sapiens, MV4-11 (Flt3-ITD+), read-out: Growth Suppression in AML Cell Lines (IC50, nM) MV4-11. As to the method:
as §1, §2

For the next test, the system named is MOLM-14 cells. The experiment in a line: Growth inhibition, CellTiter-Blue viability, 72 h. The settings on record: Homo sapiens, MOLM-14 (Flt3-ITD+), read-out: Growth Suppression in AML Cell Lines (IC50, nM) MOLM-14. It is filed as cell-based. As to the method:
as §1, §2

The subject of another test is MOLM-13 cells. Put plainly: Growth inhibition, CellTiter-Blue viability, 72 h. It counts as cell-based. The conditions noted are these: Homo sapiens, MOLM-13 (Flt3-ITD+), read-out: Growth Suppression in AML Cell Lines (IC50, nM) MOLM-13. As to the method: as §1, §2
The test system of test [1] is Flt3-ITD+ AML cell lines (MV4-11, MOLM-13, MOLM-14). The experiment in a line: Apoptosis, Apo-ONE Caspase 3/7 assay. It counts as cell-based, human. The settings on record: 1.0 μM, 72 h. The protocol:
as §1
Cell viability was measured in parallel using the CellTiter-Blue assay, and the resulting data are presented as the ratio of Caspase activity to cell viability as per the manufacturer’s protocol. All assays were performed in triplicate, and data are presented as the mean ratios ± SD. Asterisks indicate statistical significance between each treatment group vs. the corresponding DMSO control group with p < 0.05 (Student’s t-test).

Test [2] has as its system Flt3-ITD in MV4-11 and MOLM-14 cells. Put plainly: Immunoprecipitation/immunoblot of Flt3 phosphotyrosine content in AML cells. It counts as cell-based, human. The settings on record: compound at in vitro IC90 for Fes, 16 h (tandutinib: IC90 for Flt3-ITD, 6 h). The protocol: (§3) AML cells (2.5 x 10^6 in 5 mL) were cultured in the presence of kinase inhibitors or DMSO alone for 6 to 16 hours prior to lysis by sonication in RIPA buffer (50 mM Tris-HCl, pH 7.4, 150 mM NaCl, 1 mM EDTA, 1% Triton X-100, 0.1% SDS, 1% sodium deoxycholate) supplemented with 1 mM sodium orthovanadate, 1 mM sodium fluoride, 5 units/ml Benzonase (Novagen), and SigmaFAST EDTA-free protease inhibitor cocktail (Sigma). Flt3 and Fes were immunoprecipitated from 1 mg of cell lysate with 2 μg of antibody and 25 μL of protein G-Sepharose beads (Life Technologies) overnight at 4°C. Immunoprecipitates were washed three times by resuspension in 1.0 ml of RIPA buffer. Immunoprecipitated proteins were separated by SDS-PAGE, transferred to PVDF membranes and probed with the indicated antibodies followed by alkaline phosphatase-linked secondary antibodies. CDP-Star Western Blot Chemiluminescence Reagent (Perkin-Elmer) was used for detection.
(§4) Fes and Flt3 kinase proteins were then immunoprecipitated from cell lysates, followed by immunoblotting with antibodies to phosphotyrosine (pTyr), the Fes activation loop phosphotyrosine (pY713), as well as the Flt3 and Fes proteins.

The test system of test [3] is Fes in TF-1/Flt3-ITD cells. Put plainly: Immunoprecipitation/immunoblot of Fes pY713 in TF-1/Flt3-ITD cells. The settings on record: compound at in vitro IC90 for Fes, 16 h (tandutinib: IC90 for Flt3-ITD, 6 h). It counts as cell-based, human. As to the method:
as §3
(§5) Raw fluorescence data were corrected for background and then normalized to cultures grown in the presence of the DMSO carrier solvent. Each condition was performed in triplicate, and results are presented as the mean of the normalized values ± the SD. The resulting dose-response curves were fitted by non-linear regression analysis for estimation of the IC50 values (see Table 2). […] Fes and Flt3 kinase proteins were then immunoprecipitated from cell lysates followed by immunoblotting with antibodies to phosphotyrosine (pTyr), the Fes activation loop phosphotyrosine (pY713), as well as the Flt3 and Fes proteins.

Test [4] deals with Flt3-D835Y in TF-1/Flt3-D835Y cells. Put plainly: Immunoprecipitation/immunoblot of Flt3-D835Y phosphotyrosine content in TF-1/Flt3-D835Y cells. The conditions noted are these: immunoblot, compound at in vitro IC90. It counts as cell-based, human. As to the method: as §3, §5
Test [5] concerns T1, Fes in MV4-11 and MOLM-14 cells.
T1 construct: endogenous in cells; host or cells: MV4-11 and MOLM-14
Put plainly: Immunoprecipitation/immunoblot of Fes activation loop phosphorylation (pY713) in AML cells. It is filed as cell-based, human. The conditions noted are these: compound at in vitro IC90 for Fes, 16 h (tandutinib: IC90 for Flt3-ITD, 6 h). The protocol:
as §3, §4

For test [6], the system named is Flt3-ITD in TF-1/Flt3-ITD cells. The experiment in a line: Immunoprecipitation/immunoblot of Flt3 phosphotyrosine content in TF-1/Flt3-ITD cells. It is filed as cell-based, human. The conditions noted are these: compound at in vitro IC90 for Fes, 16 h (tandutinib: IC90 for Flt3-ITD, 6 h). As to the method: as §3, §5
In a further test the target is T2, Flt3-D835Y kinase domain (Homo sapiens, UniProt P36888, D835Y).
T2 construct: Recombinant Flt3-WT, Flt3-ITD, and Flt3-D835Y kinase domain proteins were purchased from Life Technologies; purchased Life Technologies
T2 sequence (P36888 610-943 D835Y limits assumed): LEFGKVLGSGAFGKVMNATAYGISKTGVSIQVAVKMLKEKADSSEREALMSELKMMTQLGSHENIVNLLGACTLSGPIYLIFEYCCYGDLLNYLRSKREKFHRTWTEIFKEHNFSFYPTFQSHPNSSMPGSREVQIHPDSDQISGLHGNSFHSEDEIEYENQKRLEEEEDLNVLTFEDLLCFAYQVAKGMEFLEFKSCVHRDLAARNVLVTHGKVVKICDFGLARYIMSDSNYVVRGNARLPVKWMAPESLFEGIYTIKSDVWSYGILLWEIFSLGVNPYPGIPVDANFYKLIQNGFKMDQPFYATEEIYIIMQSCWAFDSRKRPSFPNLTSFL
Put plainly: In vitro kinase assay (Z'-LYTE). It is filed as biochemical. The conditions noted are these: for IC50: ATP at Km. As to the method:
Recombinant protein kinase assays were performed using the FRET-based Z’-LYTE Kinase Assay according to the manufacturer’s instructions (Thermo Fisher Scientific). […] The Tyr-2 peptide was used as substrate for all recombinant kinases. Kinases were preincubated with inhibitors for 30 minutes, followed by addition of ATP and peptide substrate for 1 hour. Reactions were quenched by addition of development reagent, followed by incubation for an additional hour prior to fluorescence measurements on a SpectraMax M5 microplate reader. IC50 values were calculated by non-linear regression analysis of the resulting concentration-response curves using GraphPad PRISM.

Bounds are passed on as bounds.

Consider `CCN1CCN(Cc2ccc(NC(=O)c3ccc(C)c(Oc4ccnc5[nH]ccc45)c3)cc2C(F)(F)F)CC1` [HG7-92-01], for which the IC50 is above 3000 nM in the test on THP-1 cells; 19 nM in the test with MV4-11 cells; 34 nM with MOLM-14 cells; 93 nM with MOLM-13 cells; 3650 nM against Flt3-D835Y kinase domain. In [1], the “Apoptosis (Caspase 3/7 activity) in Flt3-ITD+ AML cell lines” value is recorded as “equal to or greater than that observed with tandutinib”. The “Inhibition of Flt3-ITD phosphotyrosine content in MV4-11 and MOLM-14 cells” value in test [2] was “inhibited Flt3-ITD and Fes in both cell lines”. Further, in test [3], the “Inhibition of Fes activation loop phosphorylation in TF-1/Flt3-ITD cells” value was “inhibited both Flt3-ITD and Fes”. For the same molecule, in test [4], the “Inhibition of Flt3-D835Y phosphotyrosine content in TF-1/Flt3-D835Y cells” value is “without effect”. In addition, the “Inhibition of Fes activation loop phosphorylation in MV4-11 and MOLM-14 cells” value in test [5] was “inhibited Flt3-ITD and Fes in both cell lines”. The “Inhibition of Flt3-ITD phosphotyrosine content in TF-1/Flt3-ITD cells” value in test [6] was “inhibited both Flt3-ITD and Fes”.
Consider `COc1cc(N2CCC(O)CC2)ccc1Nc1nc(Nc2ccccc2S(=O)(=O)C(C)C)c2cn[nH]c2n1` [WZ4-49-1], for which the 50% inhibitory concentration (IC50) was above 3000 nM in the test on THP-1 cells; 965 nM in the test with MV4-11 cells; 994 nM with MOLM-14 cells; 884 nM in the test on MOLM-13 cells; 642 nM against Flt3-D835Y kinase domain. For the same molecule, in test [1], the “Apoptosis (Caspase 3/7 activity) in Flt3-ITD+ AML cell lines” value is listed as “less pronounced”. The “Inhibition of Flt3-ITD phosphotyrosine content in MV4-11 and MOLM-14 cells” value in test [2] was “only inhibited Fes”. In test [3], the “Inhibition of Fes activation loop phosphorylation in TF-1/Flt3-ITD cells” value is given as “only inhibited the activity of Fes”. In addition, the “Inhibition of Flt3-D835Y phosphotyrosine content in TF-1/Flt3-D835Y cells” value in [4] is recorded as “complete inhibition”. For the same molecule, in test [5], the “Inhibition of Fes activation loop phosphorylation in MV4-11 and MOLM-14 cells” value is “only inhibited Fes”. The “Inhibition of Flt3-ITD phosphotyrosine content in TF-1/Flt3-ITD cells” value in test [6] is “only inhibited the activity of Fes”. For the same molecule, the “Sensitivity of Flt3-D835Y compared to wild-type Flt3 in vitro” value on Flt3-D835Y kinase domain (in vitro kinase assays) is listed as “about 5 fold”.
